How the values were obtained:
Human plasma kallikrein = Human plasma kallikrein (Homo sapiens (Human), UniProt P03952); experiment: Determination of the IC50 for plasma kallikrein (fluorogenic substrate H-DPro-Phe-Arg-AFC); format: biochemical; details: 37° C., read-out: IC50 (human PKaI)
Description: Determination of the IC50 for Plasma Kallikrein
(§1) Human plasma kallikrein (Protogen) was incubated at 37° C. with the fluorogenic substrate H-DPro-Phe-Arg-AFC and various concentrations of the test compound. Residual enzyme activity (initial rate of reaction) was determined by measuring the change in […] at 410 nm and the IC50 value for the test compound was determined.

Human KLK1 = Human KLK1 (Homo sapiens (Human), UniProt P06870); experiment: Determination of the IC50 for KLK1 (fluorogenic substrate H-DVal-Leu-Arg-AFC); format: biochemical; details: 37° C.
Description: Determination of the IC50 for KLK1
as §1, with “KLK1 (Callbiochem)” for “plasma kallikrein (Protogen)”, “H-DVal-Leu-Arg-AFC” for “H-DPro-Phe-Arg-AFC”

Human KLK1, sequence (P06870 25-262): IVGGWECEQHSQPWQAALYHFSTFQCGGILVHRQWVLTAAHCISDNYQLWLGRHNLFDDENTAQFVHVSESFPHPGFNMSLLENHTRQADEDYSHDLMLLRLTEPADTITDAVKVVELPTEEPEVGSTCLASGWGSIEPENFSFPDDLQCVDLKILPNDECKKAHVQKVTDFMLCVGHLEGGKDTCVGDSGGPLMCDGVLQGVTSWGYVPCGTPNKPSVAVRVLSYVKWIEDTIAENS
Human plasma kallikrein, sequence (P03952 391-638): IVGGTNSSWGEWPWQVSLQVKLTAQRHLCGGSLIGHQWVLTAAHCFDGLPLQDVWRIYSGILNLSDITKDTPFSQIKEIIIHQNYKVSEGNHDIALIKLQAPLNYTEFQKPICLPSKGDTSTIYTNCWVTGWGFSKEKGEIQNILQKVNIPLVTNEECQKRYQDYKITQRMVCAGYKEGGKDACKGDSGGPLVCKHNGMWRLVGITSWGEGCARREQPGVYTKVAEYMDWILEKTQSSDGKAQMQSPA
Human plasma kallikrein, sequence (P03952 20-390 partner): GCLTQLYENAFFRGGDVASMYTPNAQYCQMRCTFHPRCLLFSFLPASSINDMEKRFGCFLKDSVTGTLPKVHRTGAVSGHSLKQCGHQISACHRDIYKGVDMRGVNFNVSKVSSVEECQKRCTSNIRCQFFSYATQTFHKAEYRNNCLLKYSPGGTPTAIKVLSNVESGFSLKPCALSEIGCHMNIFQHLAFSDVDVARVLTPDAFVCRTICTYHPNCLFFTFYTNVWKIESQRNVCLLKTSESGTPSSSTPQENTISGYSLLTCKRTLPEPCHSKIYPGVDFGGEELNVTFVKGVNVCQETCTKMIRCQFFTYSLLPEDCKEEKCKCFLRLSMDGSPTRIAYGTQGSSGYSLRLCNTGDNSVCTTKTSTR

IC50 (Human plasma kallikrein)	IC50 (Human KLK1)	SMILES
1190 nM	> 10000 nM	Cc1cnn(Cc2ccc(Cn3cc(C(=O)NCc4ccc5c(N)nccc5c4)c(C(=O)O)n3)cc2)c1 [Example 17, 4-[(1-Amino-isoquinolin-6-ylmethyl)-carbamoyl]-1-[4-(4-methyl-pyrazol-1-ylmethyl)-benzyl]-1H-pyrazole-3-carboxylic acid]
91.1 nM	> 10000 nM	NC(=O)c1cnn(Cc2ccc(Cn3cc(C(=O)NCc4ccc5c(N)nccc5c4)c(C(F)(F)F)n3)cc2)c1 [Example 78, 1-[4-(4-Carbamoyl-pyrazol-1-ylmethyl)-benzyl]-3-trifluoromethyl-1H-pyrazole-4-carboxylic acid (1-amino-isoquinolin-6-ylmethyl)-amide]
21.2 nM	4710 nM	Cc1cnn(Cc2nc(Cn3cc(C(=O)NCc4ccc5c(N)nccc5c4)c(C(F)(F)F)n3)cs2)c1 [Example 82, 1-[2-(4-Methyl-pyrazol-1-ylmethyl)-thiazol-4-ylmethyl]-3-trifluoromethyl-1H-pyrazole-4-carboxylic acid (1-amino-isoquinolin-6-ylmethyl)-amide]
53.2 nM	2000 nM	CCOc1ncc(Cn2cc(C(=O)NCc3ccc4c(N)nccc4c3)c(C3CC3)n2)cc1Cl [Example 94, 1-(5-Chloro-6-ethoxy-pyridin-3-ylmethyl)-3-cyclopropyl-1H-pyrazole-4-carboxylic acid (1-amino-isoquinolin-6-ylmethyl)-amide]
0.74 nM	5730 nM	Cc1cnn(Cc2ccc(Cn3cc(C(=O)NCc4ccc5c(N)nccc5c4)c(C#N)n3)cc2)c1 [Example 16, 3-Cyano-1-[4-(4-methyl-pyrazol-1-ylmethyl)-benzyl]-1H-pyrazole-4-carboxylic acid (1-amino-isoquinolin-6-ylmethyl)-amide]
6.46 nM	> 10000 nM	Cc1cnn(Cc2ccc(Cn3cc(C(=O)NCc4ccc5c(N)nccc5c4)c(N4CCOCC4)n3)cc2)c1 [Example 21, 1-[4-(4-Methyl-pyrazol-1-ylmethyl)-benzyl]-3-morpholin-4-yl-1H-pyrazole-4-carboxylic acid (1-amino-isoquinolin-6-ylmethyl)-amide]
994 nM	> 10000 nM	Cc1cnn(Cc2ccc(Cn3cc(C(=O)NCc4ccc5c(N)nccc5c4)c(=O)[nH]3)cc2)c1 [Example 19, 1-[4-(4-Methyl-pyrazol-1-ylmethyl)-benzyl]-3-oxo-2,3-dihydro-1H-pyrazole-4-carboxylic acid (1-amino-isoquinolin-6-ylmethyl)-amide]
62 nM	> 10000 nM	Cc1cnn(Cc2ccc(Cn3cc(C(=O)NCc4cnc5[nH]ccc5c4)c(C(F)(F)F)n3)cc2)c1 [Example 121, 1-[4-(4-Methyl-pyrazol-1-ylmethyl)-benzyl]-3-trifluoromethyl-1H-pyrazole-4-carboxylic acid (1H-pyrrolo[2,3-b]pyridin-5-ylmethyl)-amide]
205 nM	4730 nM	CCOc1ccc(Cn2cc(C(=O)NCc3ccc4c(N)nccc4c3)c(-c3ccccc3)n2)cn1 [Example 26, 1-(6-Ethoxy-pyridin-3-ylmethyl)-3-phenyl-1H-pyrazole-4-carboxylic acid (1-amino-isoquinolin-6-ylmethyl)-amide]
13.8 nM	> 10000 nM	Nc1nccc2cc(CNC(=O)c3cn(Cc4ccc(Cn5ccnn5)cc4)nc3C3CC3)ccc12 [Example 91, 3-Cyclopropyl-1-(4-[1,2,3]triazol-1-ylmethyl-benzyl)-1H-pyrazole-4-carboxylic acid (1-amino-isoquinolin-6-ylmethyl)-amide]
2.29 nM	> 10000 nM	Nc1nccc2cc(CNC(=O)c3cn(Cc4ccc(Cn5cccn5)nc4)nc3C(F)(F)F)ccc12 [Example 79, 1-(6-Pyrazol-1-ylmethyl-pyridin-3-ylmethyl)-3-trifluoromethyl-1H-pyrazole-4-carboxylic acid (1-amino-isoquinolin-6-ylmethyl)-amide]
16.8 nM	> 10000 nM	Nc1nccc2cc(CNC(=O)c3cnn(Cc4ccc(Cn5cccn5)cc4)c3N)ccc12 [Example 53, 5-Amino-1-(4-pyrazol-1-ylmethyl-benzyl)-1H-pyrazole-4-carboxylic acid (1-amino-isoquinolin-6-ylmethyl)-amide]
63.6 nM	> 10000 nM	CCCOc1ccc(Cn2cc(C(=O)NCc3ccc4c(N)nccc4c3)c(C(F)(F)F)n2)cn1 [Example 71, 1-(6-Propoxy-pyridin-3-ylmethyl)-3-trifluoromethyl-1H-pyrazole-4-carboxylic acid (1-amino-isoquinolin-6-ylmethyl)-amide]
2.4 nM	> 10000 nM	Cc1cnn(Cc2ccc(Cn3cnc(C(=O)NCc4ccc5c(N)nccc5c4)c3)cc2)c1 [Example 10, 1-[4-(4-Methyl-pyrazol-1-ylmethyl)-benzyl]-1H-imidazole-4-carboxylic acid (1-amino-isoquinolin-6-ylmethyl)-amide]
4.85 nM	9050 nM	Cc1cnn(Cc2ccc(Cn3cc(C(=O)NCc4ccc5c(N)nccc5c4)c(-c4ccsc4)n3)cc2)c1 [Example 42, 1-[4-(4-Methyl-pyrazol-1-ylmethyl)-benzyl]-3-thiophen-3-yl-1H-pyrazole-4-carboxylic acid (1-amino-isoquinolin-6-ylmethyl)-amide]

The remaining lines, values behind:

SMILES	IC50 (Human plasma kallikrein)	IC50 (Human KLK1)
C[C@@H]1CCN(c2ccc(Cn3cc(C(=O)NCc4ccc5c(N)nccc5c4)c(C(F)(F)F)n3)cn2)C1 [Example 58, 1-[6-((R)-3-Methyl-pyrrolidin-1-yl)-pyridin-3-ylmethyl]-3-trifluoromethyl-1H-pyrazole-4-carboxylic acid (1-amino-isoquinolin-6-ylmethyl)-amide]	13.3 nM	3110 nM
COc1cc(Cn2cc(C(=O)NCc3ccc4c(N)nccc4c3)c(C3CC3)n2)cc(N2CCCC2)n1 [Example 88, 3-Cyclopropyl-1-(2-methoxy-6-pyrrolidin-1-yl-pyridin-4-ylmethyl)-1H-pyrazole-4-carboxylic acid (1-amino-isoquinolin-6-ylmethyl)-amide]	112 nM	9630 nM
CCC(C)Oc1ccc(Cn2cc(C(=O)NCc3ccc4c(N)nccc4c3)c(C(F)(F)F)n2)cn1 (stereo not drawn) [Example 72, 1-(6-sec-Butoxy-pyridin-3-ylmethyl)-3-trifluoromethyl-1H-pyrazole-4-carboxylic acid (1-amino-isoquinolin-6-ylmethyl)-amide]	118 nM	> 10000 nM
Cc1cnn(Cc2ccc(Cn3cc(C(=O)NCc4ccc5c(N)nccc5c4)cn3)cc2)c1 [Example 31, 1-[4-(4-Methyl-pyrazol-1-ylmethyl)-benzyl]-1H-pyrazole-4-carboxylic acid (1-amino-isoquinolin-6-ylmethyl)-amide]	2 nM	> 10000 nM
Nc1nccc2cc(CNC(=O)c3cn(Cc4ccc(OCC(F)(F)F)nc4)nc3C3CC3)ccc12 [Example 92, 3-Cyclopropyl-1-[6-(2,2,2-trifluoro-ethoxy)-pyridin-3-ylmethyl]-1H-pyrazole-4-carboxylic acid (1-amino-isoquinolin-6-ylmethyl)-amide]	109 nM	> 10000 nM
Nc1nccc2cc(CNC(=O)c3cn(Cc4cnc(N5CCCC5)c(F)c4)nc3C(F)(F)F)ccc12 [Example 73, 1-(5-Fluoro-6-pyrrolidin-1-yl-pyridin-3-ylmethyl)-3-trifluoromethyl-1H-pyrazole-4-carboxylic acid (1-amino-isoquinolin-6-ylmethyl)-amide]	22.6 nM	1570 nM
Nc1nccc2cc(CNC(=O)c3cn(Cc4ccc(N5CC[C@@H](CO)C5)nc4)nc3C(F)(F)F)ccc12 [Example 70, 1-[6-((R)-3-Hydroxymethyl-pyrrolidin-1-yl)-pyridin-3-ylmethyl]-3-trifluoromethyl-1H-pyrazole-4-carboxylic acid (1-amino-isoquinolin-6-ylmethyl)-amide]	66.9 nM	4910 nM
O=C(NCc1n[nH]c2ccc(Cl)cc12)c1cn(Cc2ccc(Cn3ccccc3=O)cc2)nc1C(F)(F)F [Example 129, 1-[4-(2-Oxo-2H-pyridin-1-ylmethyl)-benzyl]-3-trifluoromethyl-1H-pyrazole-4-carboxylic acid (5-chloro-1H-indazol-3-ylmethyl)-amide]	2.14 nM	> 10000 nM
Nc1nccc2cc(CNC(=O)c3cn(Cc4cnc(N5CCCC5)c(Cl)c4)nc3C3CC3)ccc12 [Example 97, 1-(5-Chloro-6-pyrrolidin-1-yl-pyridin-3-ylmethyl)-3-cyclopropyl-1H-pyrazole-4-carboxylic acid (1-amino-isoquinolin-6-ylmethyl)-amide]	18.5 nM	3010 nM
Nc1nccc2cc(CNC(=O)c3cn(Cc4csc(Cn5cccn5)n4)nc3C(F)(F)F)ccc12 [Example 81, 1-(2-Pyrazol-1-ylmethyl-thiazol-4-ylmethyl)-3-trifluoromethyl-1H-pyrazole-4-carboxylic acid (1-amino-isoquinolin-6-ylmethyl)-amide]	26.5 nM	8970 nM
Nc1nccc2cc(CNC(=O)c3cn(Cc4cnc(N5CCCC5)nc4)nc3C(F)(F)F)ccc12 [Example 64, 1-(2-Pyrrolidin-1-yl-pyrimidin-5-ylmethyl)-3-trifluoromethyl-1H-pyrazole-4-carboxylic acid (1-amino-isoquinolin-6-ylmethyl)-amide]	10.4 nM	2790 nM
CCOc1cc(Cn2cc(C(=O)NCc3ccc4c(N)nccc4c3)c(C(F)(F)F)n2)cnc1Cl [Example 74, 1-(6-Chloro-5-ethoxy-pyridin-3-ylmethyl)-3-trifluoromethyl-1H-pyrazole-4-carboxylic acid (1-amino-isoquinolin-6-ylmethyl)-amide]	425 nM	2770 nM
